Data reported in patent US12624031B2, “Inhibitors of ubiquitin specific peptidase 22 (USP22) and uses thereof for treating diseases and disorders” (Northwestern University, priority 2022, dated 2026).

System: Foxp3 in human Treg cells
Assay: Foxp3 MFI of human Treg cells
Assay type: cell-based
Settings: low doses
Description: FIG. 6: Usp22i-S02 halts Usp22-mediated Foxp3 deubiqutination. A, Graphical representation of Foxp3 MFI change in WT versus 22KO iTreg cells treated with various doses of Usp22i-S02 (n=3). B, Representative histogram of Foxp3 MFI level in iTreg cells as Usp22 inhibitor concentration increases from 0-20 μg/mL. C, Cell survival of iTreg cells treated with various doses of Usp22i-S02 (n=3). D, FOXP3 and USP22 protein level in WT and 22KO mice treated with 10 μg/mL Usp22i-S02. E-F, Graphical and representative data of Foxp3 MFI of human Treg cells treated with various doses of Usp22i-S02 (n=3). G, Graphical representation of Foxp3 MFI in WT, Usp21-null, and Usp22-null Treg cells treated with Usp22i-S02 at 10 μg/mL (n=3). H, FOXP3 and USP22 protein degradation of cycloheximide (10 μg/mL) treated iTreg cells with or without the addition of 10 μg/mL of Usp22i-S02. I-J, Endogenous DUB assay IP in iTreg cells of USP22 with FOXP3 under increasing concentrations of Usp22i-S02. K, Foxp3 mRNA level in iTreg cells as Usp22 inhibitor concentration increases from 0-20 μg/mL (n=3). L, FOXP3 and USP22 level in WT iTreg cells with or without 20 μg/mL Usp22 inhibitor treated with 20 μM MG132. M, Graphical representation of the percentage of decrease of Foxp3 MFI in either WT or Usp22-null nTreg cells placed in low glucose conditions with or without the addition of 10 μg/mL of Usp22i-S02 (n=7-8). […]

Compound: N#Cc1c2c(c(Nc3ccccc3)n3c1nc1ccccc13)CCCC2 [USP22i-S02, 11-anilino-7,8,9,10-tetrahydrobenzimidazo[1,2-b]isoquinoline-6-carbonitrile]
- Foxp3 MFI in human Treg cells: significantly decreased Foxp3 MFI
- viability of human Treg cells: little effect to cell viability
